This is an account of results in paper PMC11555678, “Improved Broad Spectrum Antifungal Drug Synergies with Cryptomycin, a Cdc50-Inspired Antifungal Peptide” (ACS Infectious Diseases, 2024).

Values after ≈ are worked out from the molar mass of the structure shown. Square brackets hold non-standard residues; d marks the D form. Peptide text beside a SMILES is read from it. * marks the point of attachment. Myristoyl = CCCCCCCCCCCCCC(=O)*; Orn = NCCC[C@H](N)C(=O)O

As usually defined, the MIC is the smallest concentration in the dilution series that meets the test's criterion for growth inhibition.

In one experiment the test system is C. neoformans cdc50Δ. The settings on record: Cdc50 deleted, previous study; cited from earlier work. The method, then: Our previous studies have identified that the Cn cdc50Δ mutant was highly susceptible to CAS compared to the wild-type.[23] The minimum inhibitory concentration (MIC) of CAS was reduced 4-fold from 16 to 4 μg/mL when Cdc50 was deleted. The surprising observation that loss of Cdc50 sensitized Cryptococcus to CAS led to an obvious question: why did a mutation to a seemingly disparate cellular system-membrane homeostasis proteins have such a dramatic effect on the susceptibility to cell wall biosynthesis inhibitors? It was subsequently discovered that Cdc50 in C. neoformans is unique because it h ...

In another experiment the test system is C. neoformans MRL862. The settings on record: cited from earlier work. The method, then:
First, the MICs of the peptides and commonly used antifungal drugs were assessed on their own. A full accounting of MICs of intermediate SAR screen peptides is reported in Supporting Information, Table S1.

The subject of experiment [1] is C. neoformans H99 and cdc50Δ. Description: Intracellular calcium measurement (Fluo-3AM, flow cytometry). Format: cell-based, Cryptococcus neoformans. The settings on record: YPD, remained elevated for the 60 min time course. On the procedure:
Intracellular calcium measurement was carried out in accordance with previously reported methodologies.[35] Yeast cells were sub cultured ON in YPD, and the next day cells were washed twice in D-Hanks (0.4 g/Liter KCl, 0.06 g/Liter KH2PO4, 8.0 g/Liter NaCl, 0.35 g/Liter NaHCO3, 0.06 g/Liter Na2HPO4·7H2O) and adjusted to 1 × 10^7 cfu/mL in 5 mL D-Hanks. Fluo-3-AM stock solution in DMSO was diluted 1000-fold to operating stain concentration of 10 μM. Cells were stained in the dark for 30 min at 37 °C, 225 rpm, in a 12 mL culture tube. Stained cells were washed three times in D-Hanks and resuspended into a minimal amount of YPD or calcium-enriched YPD required to inoculate each condition. Each condition was prepared with three technical replicates. After inoculating 1 mL YPD with 0.2 mL cell suspension, 0.2 mL was aliquoted into a flow tube for the 0 min time point. The flow tube was placed on ice until flow analysis. […] To allow for sample processing for each time point, each set of replicates was inoculated and treated about 2 min apart. Subsequent 0.2 mL aliquots were drawn at 12, 24, 36, and 60 min for flow analysis. Live cells were analyzed using BD FACS via 100,000 events were collected, and singlets were gated for each sample. The mean fluorescence of the singlets was recorded and plotted as a function of […].
(In general: Calcium assays in cells follow changes in intracellular calcium, usually with a dye or a luminescent sensor.)

Experiment [2] deals with C. neoformans with macrophage J774 cells. The experiment in a line: Phagocytosis assay. Format: cell-based, Cryptococcus neoformans / murine macrophage. The note with it: sub-MIC peptide-treated yeast cells coincubated with macrophages for 2 h. The method, then: The J774A. I macrophage-like cell line (ATCC# TIB-67) was grown in DMEM supplemented with 10% FBS, 5% penstrep, and L-glutamine (1×), and passed 2–3 times per week. The cells were never used after 5 passages. Phagocytosis assay was performed in a 48-well plate using J774 cells (5 × 10^4) in 0.5 mL of fresh DMEM were added to each well and incubated at 37 °C, 5% CO2. To activate the macrophages, 50 units/mL interferon γ (IFN-γ; Invitrogen) and 1 μg/mL lipopolysaccharide (LPS; Sigma) were added to each well. Yeast cells were adjusted to 2.4 × 10^6 cfu/mL in RPMI1640. One mL of cell suspension was aliquoted into a 12 mL vented culture tube. The peptide was added to each tube, and the cells were incubated for 30 min at 30 °C, 225 rpm. The cells were pelleted and resuspended in 100 μL of 20% mouse compliment in PBS. The cells were opsonized at room temperature for 30 min. After opsonization, 10 μL of cell suspension was added to each well. Yeast cells were coincubated with macrophages for 2 h at 37 °C in 5% CO2 in technical triplicates per condition. After coincubation, the supernatant was removed, and the wells were washed 3 times with 200 μL DMEM + penstrep, and then fixed with 200 μL ice cold methanol for 30 min. […] The images were quantified using phagocytosis rate, % phagocytosis, and phagocytic index, eqs 3–5, between 200 and 300 macrophages were counted per technical replicate [drawing 3] […]

A further experiment relates to Cn cdc50Δ. Description: Intracellular ROS detection (H2DCFDA, flow cytometry). Format: cell-based, Cryptococcus neoformans. The settings on record: 30 min exposure in YPD. The method, then: (§1) Protocol was carried out in accordance with previously reported methodologies.[35] Yeast cells were grown ON in liquid YPD, washed once in H2O, and resuspended in fresh YPD. The OD600 was adjusted to 0.2 in YPD. Cells were incubated for 3 h at 30 °C, 225 rpm, and then stained with 10 μM H2DCFDA for 2 h at 30 °C, 225 rpm, in the dark. Stained cells were washed twice with DD-H2O and resuspended in the minimal amount of YPD or calcium-enriched YPD needed to inoculate each technical replicate with cells. Each condition was prepared with four technical replicates. In the dark, the stained cells were titrated with KKOO-NH2 from 0.25 to 1× MIC and incubated for 30 min at 30 °C, 225 rpm, in 1 mL of YPD in 12 mL of vented culture tubes. After treatment, cells were transferred to 1.5 mL Eppendorf and centrifuged for 5 min at 2000 rpm. The cells were washed once with 0.5 mL of PBS and resuspended in 0.2 mL of PBS, and stored on ice for live-cell flow analysis, BD FACS Via (Franklyn Lakes, NJ). 100,000 events were recorded, and singlets were gated from SSC-A × FSC-A plot. Mean fluorescence signal intensity from the probe was plotted as a function of peptide concentration. Cells that remained after FACS were pooled based on their condition and imaged under the fluorescence microscope, Zeiss Axioscope 5.

A further experiment has as its system Cn H99. The experiment is described as above. Format: cell-based, Cryptococcus neoformans. The settings on record: 30 min exposure in YPD. On the procedure: as §1

Regarding `CC[C@H](C)C[C@H](C)CCCCCCCCC(=O)N[C@H]1C[C@@H](O)[C@@H](NCCN)NC(=O)[C@@H]2[C@@H](O)CCN2C(=O)[C@H]([C@H](O)CCN)NC(=O)[C@H]([C@H](O)[C@@H](O)c2ccc(O)cc2)NC(=O)[C@@H]2C[C@@H](O)CN2C(=O)[C@H]([C@@H](C)O)NC1=O` [CAS, caspofungin], the MIC with C. neoformans cdc50Δ was 4 µg/mL (≈ 3.66 µM).
In the case of `OC(Cn1cncn1)(Cn1cncn1)c1ccc(F)cc1F` [FLC, fluconazole], the “MIC, reported value” in the experiment with C. neoformans MRL862 was 128 µg/mL (≈ 418 µM).
Turning to `CCCCCCCCCCCCCC(=O)N[C@@H](Cc1c[nH]c2ccccc12)C(=O)NCC(=O)NCC(=O)N[C@H](C(=O)N[C@@H](CCCN)C(=O)N[C@@H](CCCN)C(=O)N[C@@H](CC(N)=O)C(=O)N[C@@H](Cc1ccc(O)cc1)C(=O)N[C@@H](C)C(N)=O)[C@@H](C)CC` [KKOO-NH2] (Myristoyl-WGGI[Orn][Orn]NYA-NH2), in experiment [1], the “time to difference in intracellular calcium signaling vs untreated cells” value is reported as not above 12 min. The “phagocytic index or phagocytosis rate vs control” value in experiment [2] is given as “No statistically significant differences”. Further, the “lowest peptide concentration with elevated ROS production” value in the experiment with Cn cdc50Δ was 1 µg/mL; in the experiment with Cn H99, 4 µg/mL.
